Holding throughout (type): cell-based
For assay [1], the target named is T1, human β3 adrenergic receptor (Homo sapiens, UniProt P13945).
T1 construct: Full length β3 AR clones (402 amino acids) containing the last 6 amino acids of hβ3— AR are prepared; expressed in transfected cells; host or cells: CHO cells
Nature of the assay: cAMP accumulation (SPA) in CHO cells transfected with human β3 adrenergic receptor. The following applies: for EC50: CHO cells expressing human β3-AR, cAMP, 30 min incubation, 10^−9 M to 10^−5 M, read-out: beta-3 EC50; for beta-3 (IA) maximal response relative to isoproterenol: IA = % activity compound / % activity isoproterenol at 10^−5 M, CHO human β3 cells. The procedure: (§1) The ability of compounds of this invention to treat or inhibit disorders related to insulin resistance or hyperglycemia was established with representative compounds of this invention in the following standard pharmacological test procedures, which measured the binding selectivity to the β1, β2, and β3 adrenergic receptors. Binding to the receptors was measured in Chinese Hamster ovary (CHO) cells that were transfected with adrenergic receptors. The following briefly summarizes the procedures used and results obtained.
Cloning of Human β3-AR Genomic DNA: cDNA was constructed by ligating four polymerase chain reaction (PCR) products using the following primers: an ATG-Narl fragment, sense primer 5′-[…]3′ and anti-sense primer 5′[…]3′; a Narl-Accl fragment, 5′[…]3′ as sense and 5′[…]3′ as anti-sense primer; an Accli-Styl fragment, sense primer 5′[…]3′ and anti-sense primer 5′[…]3′ and a Styl-TAG fragment, with sense primer 5′[…]3′ and anti-sense primer 5′[…]3′. The corresponding primer sequences are described in Mantzoros, C. S., et.al., Diabetes 45: 909-914 (1996). The four fragments are ligated into a pUC 18 plasmid (Gibco-BRL) and sequenced. Full length β3 AR clones (402 amino acids) containing the last 6 amino acids of hβ3— AR are prepared with the β3-βARpcDNA3from ATTC.
(§2) Binding Procedure: Clones expressing receptor levels of 70 to 110 fmoles/mg protein were used in the test procedures. CHO cells were grown in 24-well tissue culture plates in Dulbecco's Modified Eagle Media with 10% fetal bovine serum, MEM non-essential amino acids, Penicillin-Streptompycin and Geneticin. On the day of test procedure, growth medium was replaced with preincubation media (Dulbecco's Modified Eagle Media and incubated for 30 minutes at 37° C. Preincubation medium was replaced with 0.2 ml treatment medium containing DMEM media containing 250 μM IBMX (isobutyl-1-methylxantine) plus 1 mM ascorbic acid with test compound dissolved in DMSO. Test compounds were tested over a concentration range of 10^−9 M to 10^−5 M for β3 cells and 10^−8 to 10^−4 M for β1 and β2 transfected cells. Isoproterenol (10^−5 M) was used as an internal standard for comparison of activity. Cells were incubated at 37° C. on a rocker for 30 min with the β3 cells and 15 min for β1 and β2 cells. Incubation was stopped with the addition of 0.2N HCl and neutralized with 2.5N NaOH. The plates, containing the cells and neutralized media, were stored at −20 degrees celsius until ready to test for cAMP using the SPA test kit (Amersham).
(§3) Data Analysis and Results: Data collected from the SPA test procedure were analyzed as per cent of the maximal isoproterenol response at 10^−5 M. Activity curves were plotted using the SAS statistical and graphics software. EC50 values were generated for each compound and the maximal response (IA) developed for each compound is compared to the maximal response of isoproternol at 10^−5 M from the following formula:
(§4) IA=% activity compound/% activity isoproterenol
On the technique in general: Changes in cAMP serve as a functional read-out for many G protein-coupled receptors.

Assay [2] deals with T2, human β2-adrenergic receptor (Homo sapiens, UniProt P07550).
T2 construct: expressed in transfected cells; host or cells: CHO cells
T2 sequence (P07550 whole entry): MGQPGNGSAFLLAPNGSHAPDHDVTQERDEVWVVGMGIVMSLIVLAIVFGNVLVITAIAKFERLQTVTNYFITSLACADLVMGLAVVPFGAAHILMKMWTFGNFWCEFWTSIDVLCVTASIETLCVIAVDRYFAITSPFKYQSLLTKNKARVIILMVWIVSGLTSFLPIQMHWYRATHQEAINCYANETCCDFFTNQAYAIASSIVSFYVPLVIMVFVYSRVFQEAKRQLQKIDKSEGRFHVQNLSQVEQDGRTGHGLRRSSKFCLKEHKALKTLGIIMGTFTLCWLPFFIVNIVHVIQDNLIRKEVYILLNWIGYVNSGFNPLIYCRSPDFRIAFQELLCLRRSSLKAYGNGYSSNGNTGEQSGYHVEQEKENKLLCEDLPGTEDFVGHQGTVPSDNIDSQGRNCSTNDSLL
Put plainly: cAMP accumulation (SPA) in CHO cells transfected with human β2 adrenergic receptor. The following applies: for EC50: CHO cells transfected with human β2-AR, cAMP, 15 min incubation, 10^−8 to 10^−4 M, read-out: beta-2 EC50; for beta-2 (IA) maximal response relative to isoproterenol: IA = % activity compound / % activity isoproterenol at 10^−5 M, CHO human β2 cells. Here is the method: as §1
(§5) Transfection of CHO cells with β1 and β2 adrenergic receptors: CHO cells were transfected with human β1- or β2-adrenergic receptors as described in Tate, K. M., Eur. J. Biochem., 196:357-361 (1991).
as §2, §3, §4

Assay [3] addresses T3, human β1-adrenergic receptor (Homo sapiens, UniProt P08588).
T3 construct: expressed in transfected cells; host or cells: CHO cells
Nature of the assay: cAMP accumulation (SPA) in CHO cells transfected with human β1 adrenergic receptor. To be noted: for EC50: CHO cells transfected with human β1-AR, cAMP, 15 min incubation, 10^−8 to 10^−4 M, read-out: beta-1 EC50; for beta-1 (IA) maximal response relative to isoproterenol: IA = % activity compound / % activity isoproterenol at 10^−5 M, CHO human β1 cells. Here is the method:
as §1, §5, §2, §3, §4

T3 sequence (P08588 whole entry): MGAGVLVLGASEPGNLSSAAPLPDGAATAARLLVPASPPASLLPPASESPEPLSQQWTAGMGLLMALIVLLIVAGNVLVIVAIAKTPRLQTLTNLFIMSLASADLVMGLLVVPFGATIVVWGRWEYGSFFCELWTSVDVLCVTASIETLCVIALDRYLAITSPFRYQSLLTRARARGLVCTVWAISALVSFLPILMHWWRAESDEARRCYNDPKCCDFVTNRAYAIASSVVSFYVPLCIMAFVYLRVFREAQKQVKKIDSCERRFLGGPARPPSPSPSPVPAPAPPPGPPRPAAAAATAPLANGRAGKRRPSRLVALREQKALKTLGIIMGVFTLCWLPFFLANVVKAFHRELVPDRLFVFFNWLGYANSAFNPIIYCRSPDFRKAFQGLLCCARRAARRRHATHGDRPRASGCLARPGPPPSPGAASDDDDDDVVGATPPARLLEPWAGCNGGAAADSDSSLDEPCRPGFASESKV
T1 sequence (P13945 whole entry): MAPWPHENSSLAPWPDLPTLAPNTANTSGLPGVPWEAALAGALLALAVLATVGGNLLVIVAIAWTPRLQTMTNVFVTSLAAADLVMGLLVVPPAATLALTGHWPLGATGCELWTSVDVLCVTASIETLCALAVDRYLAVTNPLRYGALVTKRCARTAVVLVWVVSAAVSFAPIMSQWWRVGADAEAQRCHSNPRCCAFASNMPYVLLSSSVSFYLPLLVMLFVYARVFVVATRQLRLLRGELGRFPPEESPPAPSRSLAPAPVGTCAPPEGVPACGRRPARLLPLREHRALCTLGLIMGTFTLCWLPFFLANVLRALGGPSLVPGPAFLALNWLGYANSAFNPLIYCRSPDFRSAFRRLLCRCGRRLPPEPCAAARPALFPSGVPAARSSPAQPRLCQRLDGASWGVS

For `CS(=O)(=O)Nc1cc([C@@H](O)CNC2CCN(c3ccc(S(=O)(=O)NCC4CC4)cc3)CC2)ccc1O` [Example 26, N-Cyclopropylmethyl-4-{4-[(2R)-2-hydroxy-2-(4-hydroxy-3-methanesulfonylamino-phenyl)-ethylamino]-piperidin-1-yl}-benzenesulfonamide], in assay [1], the EC50 (in general, the midpoint of the concentration-response curve) was determined as 23 nM and the “beta-3 (IA) maximal response relative to isoproterenol” value is “(0.98)”. Moreover, in assay [2], the EC50 came out at 270 nM and the “beta-2 (IA) maximal response relative to isoproterenol” value is “(0.29)”. In addition, in assay [3], the EC50 turned out to be 240 nM and the “beta-1 (IA) maximal response relative to isoproterenol” value is listed as “(0.41)”.
On to `CC(C)CNS(=O)(=O)c1ccc(N2CCC(NC[C@H](O)c3ccc(O)c(NS(C)(=O)=O)c3)CC2)cc1` [Example 27, 4-{4-[(2R)-2-Hydroxy-2-(4-hydroxy-3-methanesulfonylamino-phenyl)-ethylamino]-piperidin-1-yl}-N-isobutyl-benzenesulfonamide], for which, in assay [1], the EC50 turned out to be 2 nM and the “beta-3 (IA) maximal response relative to isoproterenol” value was “(1)”. Besides, in assay [2], the EC50 turned out to be 540 nM and the “beta-2 (IA) maximal response relative to isoproterenol” value is recorded as “(0.29)”. In assay [3], the EC50 came to 420 nM and the “beta-1 (IA) maximal response relative to isoproterenol” value is reported as “(0.22)”.
`CCOC(=O)CN(CC1CC1)S(=O)(=O)c1ccc(N2CCC(NC[C@H](O)c3ccc(O)c(NS(C)(=O)=O)c3)CC2)cc1` [Example 28, [Cyclopropylmethyl-(4-{4-[(2R)-2-hydroxy-2-(4-hydroxy-3-methanesulfonylamino-phenyl)-ethylamino]-piperidin-1-yl}-benzenesulfonyl)-amino]-acetic Acid Ethyl Ester]: in assay [1], the EC50 came to 2 nM and the “beta-3 (IA) maximal response relative to isoproterenol” value is on record as “(0.94)”. In addition, in assay [2], the EC50 came out at 6600 nM and the “beta-2 (IA) maximal response relative to isoproterenol” value was “(0.85)”. Also, in assay [3], the “beta-1 (IA) maximal response relative to isoproterenol” value is on record as “(0.24)”.
Turning to `CC(C)NS(=O)(=O)c1ccc(N2CCC(NC[C@H](O)c3ccc(O)c(NS(C)(=O)=O)c3)CC2)cc1` [Example 29, 4-{4-[(2R)-2-Hydroxy-2-(4-hydroxy-3-methanesulfonylamino-phenyl)-ethylamino]-piperidin-1-yl}-N-isopropyl-benzenesulfonamide], in assay [1], the EC50 stood at 7 nM and the “beta-3 (IA) maximal response relative to isoproterenol” value was “(1.3)”. Moreover, in assay [2], the EC50 stood at 2900 nM and the “beta-2 (IA) maximal response relative to isoproterenol” value is “(0.48)”. Besides, in assay [3], the concentration for a half-maximal effect (EC50) amounted to 2000 nM and the “beta-1 (IA) maximal response relative to isoproterenol” value is on record as “(0.57)”.
Consider `CCOC(=O)[C@H]1CCCN1S(=O)(=O)c1ccc(N2CCC(NC[C@H](O)c3ccc(O)c(NS(C)(=O)=O)c3)CC2)cc1` [Example 30, 1-(4-{4-[(2R)-2-Hydroxy-2-(4-hydroxy-3-methanesulfonylamino-phenyl)-ethylamino]-piperidin-1-yl}-benzenesulfonyl)-pyrrolidine-(2R)-2-carboxylic Acid Ethyl Ester], for which, in assay [1], the EC50 came out at 4 nM and the “beta-3 (IA) maximal response relative to isoproterenol” value is recorded as “(1.2)”. In addition, in assay [2], the EC50 was found to be 3600 nM and the “beta-2 (IA) maximal response relative to isoproterenol” value is recorded as “(0.36)”. In assay [3], the EC50 was found to be 9800 nM and the “beta-1 (IA) maximal response relative to isoproterenol” value is “(1.1)”.
Take `CS(=O)(=O)Nc1cc([C@@H](O)CNC2CCN(c3ccc(S(=O)(=O)N(CC(=O)O)CC4CC4)cc3)CC2)ccc1O` [Example 31, [Cyclopropylmethyl-(4-{4-[(2R)-2-hydroxy-2-(4-hydroxy-3-methanesulfonylamino-phenyl)-ethylamino]-piperidin-1-yl}-benzenesulfonyl)-amino]-acetic Acid]: in assay [1], the EC50 stood at 7 nM and the “beta-3 (IA) maximal response relative to isoproterenol” value is “(1.2)”. In assay [2], the concentration giving a half-maximal response (EC50) worked out at 12000 nM and the “beta-2 (IA) maximal response relative to isoproterenol” value was “(0.33)”. Also, in assay [3], the EC50 was 20000 nM and the “beta-1 (IA) maximal response relative to isoproterenol” value was “(0.96)”.
For `CCOC(=O)CN(CC(C)C)S(=O)(=O)c1ccc(N2CCC(NC[C@H](O)c3ccc(O)c(NS(C)(=O)=O)c3)CC2)cc1` [Example 32, [(4-{4-[(2R)-2-Hydroxy-2-(4-hydroxy-3-methanesulfonylamino-phenyl)-ethylamino]-piperidin-1-yl}-benzenesulfonyl)-isobutyl-amino]-acetic Acid Ethyl Ester], in assay [1], the EC50 was determined as 4 nM and the “beta-3 (IA) maximal response relative to isoproterenol” value is listed as “(1)”. Besides, in assay [2], the EC50 is 10000 nM and the “beta-2 (IA) maximal response relative to isoproterenol” value was “(0.57)”. Besides, in assay [3], the EC50 worked out at 6700 nM and the “beta-1 (IA) maximal response relative to isoproterenol” value is “(0.48)”.
Consider `CN(CC(=O)O)S(=O)(=O)c1ccc(N2CCC(NC[C@H](O)c3ccc(O)c(NS(C)(=O)=O)c3)CC2)cc1` [Example 33, [(4-{4-[(2R)-2-Hydroxy-2-(4-hydroxy-3-methanesulfonylamino-phenyl)-ethylamino]-piperidin-1-yl}-benzenesulfonyl)-methyl-amino]-acetic Acid], for which, in assay [1], the EC50 was determined as 18 nM and the “beta-3 (IA) maximal response relative to isoproterenol” value was “(1)”. For the same compound, the “beta-2 (IA) maximal response relative to isoproterenol” value in assay [2] is “(0.15)”. Moreover, in assay [3], the half-maximal effective concentration (EC50) amounted to 25000 nM and the “beta-1 (IA) maximal response relative to isoproterenol” value is reported as “(0.66)”.
The like results for `CC(C)CN(CC(=O)O)S(=O)(=O)c1ccc(N2CCC(NC[C@H](O)c3ccc(O)c(NS(C)(=O)=O)c3)CC2)cc1` [Example 34, [(4-{4-[(2R)-2-Hydroxy-2-(4-hydroxy-3-methanesulfonylamino-phenyl)-ethylamino]-piperidin-1-yl}-benzenesulfonyl)-isobutyl-amino]-acetic Acid] were, in that order, 6 nM, “(1.1)”, “(0.14)”, 10000 nM and “(0.49)”.
Regarding `CS(=O)(=O)Nc1cc([C@@H](O)CNC2CCN(c3ccc(S(=O)(=O)N4CCC[C@@H]4C(=O)O)cc3)CC2)ccc1O` [Example 35, 1-(4-{4-[(2R)-2-Hydroxy-2-(4-hydroxy-3-methanesulfonylamino-phenyl)-ethylamino]-piperidin-1-yl}-benzenesulfonyl)-pyrrolidine-(2R)-2-carboxylic Acid], in assay [1], the EC50 was found to be 11 nM and the “beta-3 (IA) maximal response relative to isoproterenol” value is reported as “(1.1)”. In addition, the “beta-2 (IA) maximal response relative to isoproterenol” value in assay [2] is “(0.04)”. In assay [3], the EC50 worked out at 49000 nM and the “beta-1 (IA) maximal response relative to isoproterenol” value is given as “(0.66)”.
For the compound `CCOC(=O)[C@@H]1CCCN1S(=O)(=O)c1ccc(N2CCC(NC[C@H](O)c3ccc(O)c(NS(C)(=O)=O)c3)CC2)cc1` [Example 36, Ethyl (2S)-1-[(4-{4-[((2R)-2-Hydroxy-2-{4-hydroxy-3-[(methylsulfonyl)amino]phenyl}ethyl)amino]-1-piperidinyl}phenyl)sulfonyl]-2-pyrrolidinecarboxylate], in assay [1], the EC50 stood at 9 nM and the “beta-3 (IA) maximal response relative to isoproterenol” value is “(1)”. In assay [2], the EC50 was found to be 720 nM and the “beta-2 (IA) maximal response relative to isoproterenol” value is recorded as “(0.19)”. Also, in assay [3], the EC50 was determined as 4800 nM and the “beta-1 (IA) maximal response relative to isoproterenol” value is given as “(0.85)”.

Source of the values: patent US6444685B1, “N-(4-sulfonylaryl)Cyclylamine 2-hydroxyethylamines as beta-3 adrenergic receptor agonists” (Wyeth, priority 2000, dated 2002).
